As a reminder, the mortality is the percentage killed. Higher therefore signals a strong lethal effect.

Assay type in all cases: in vivo
One assay concerns Chilo suppressalis. The assay is described as follows: Example B1: activity against Chilo suppressalis (striped rice stemborer), artificial diet. To be noted: for percent control (mortality, anti-feedant effect or growth inhibition) at 200 ppm: 144 h, L2 larvae, 6 days after infestation, read-out: control (at least one of mortality, anti-feedant effect, growth inhibition). The method, then:
24-well microtiter plates with artificial diet were treated with aqueous test solutions prepared from 10′000 ppm DMSO stock solutions by pipetting. After drying, the plates were infested with L2 larvae (6-8 per well). The samples were assessed for mortality, anti-feeding effect, and growth inhibition in comparison to untreated samples 6 days after infestation. Control of Chilo suppressalis by a test sample is given when at least one of the categories mortality, anti-feedant effect, and growth inhibition is higher than the untreated sample.

Another assay deals with Diabrotica balteata. The assay is described as follows: Example B2: activity against Diabrotica balteata (corn root worm), maize sprouts. To be noted: 96 h, L2 larvae, 4 days after infestation, read-out: effect in at least one of the two categories (mortality or growth inhibition). The method, then: Maize sprouts placed onto an agar layer in 24-well microtiter plates were treated with aqueous test solutions prepared from 10′000 ppm DMSO stock solutions by spraying. After drying, the plates were infested with L2 larvae (6 to 10 per well). The samples were assessed for mortality and growth inhibition in comparison to untreated samples 4 days after infestation. The following compounds gave an effect of at least 80% in at least one of the two categories (mortality or growth inhibition) at an application rate of 200 ppm: P1, P2, P3, P4, P5, P7, P8, P9, P10, P11, P12, P13, P14, P15, P16, P17, P18, P19, P20, P21, P22, P23, P24, P25, P26, P27, P28, P29, P30, P31, P33, P34, P35, P36, P37, P38, P39, P40, P41, P42, P43, P45, P46, P47, P48, P49, P50, P51, P52, P53, P55, P57, P58, P59, P60, P61, P62, P63, P64, P65, P66, P67, P69, P71, P75, P81, P82, P83.

For another assay, the system named is Myzus persicae. In words: Example B4: activity against Myzus persicae (green peach aphid), intrinsic activity. To be noted: 120 h, test rate 12 ppm, 5 days after infestation. The method, then:
Test compounds prepared from 10′000 ppm DMSO stock solutions were applied by pipette into 24-well microtiter plates and mixed with sucrose solution. The plates were closed with a stretched Parafilm. A plastic stencil with 24 holes was placed onto the plate and infested pea seedlings were placed directly on the Parafilm. The infested plate was closed with a gel blotting paper and another plastic stencil and then turned upside down. The samples were assessed for mortality 5 days after infestation.

In the next assay the test system is Plutella xylostella. The assay is described as follows: Example B5: activity against Plutella xylostella (diamond back moth), artificial diet, eggs. Particulars: 192 h, 8 days after infestation, read-out: effect in at least one of the two categories (mortality or growth inhibition). As to the method: 24-well microtiter plates with artificial diet were treated with aqueous test solutions prepared from 10′000 ppm DMSO stock solutions by pipetting. After drying, Plutella eggs were pipetted through a plastic stencil onto a gel blotting paper and the plate was closed with it. The samples were assessed for mortality and growth inhibition in comparison to untreated samples 8 days after infestation. The following compounds gave an effect of at least 80% in at least one of the two categories (mortality or growth inhibition) at an application rate of 200 ppm: P1, P2, P3, P4, P5, P6, P7, P8, P9, P10, P11, P12, P13, P14, P15, P16, P17, P18, P19, P20, P21, P22, P23, P24, P25, P26, P27, P28, P29, P30, P31, P32, P33, P34, P35, P36, P37, P38, P39, P40, P41, P42, P43, P44, P45, P46, P47, P48, P49, P50, P51, P52, P53, P54, P55, P57, P58, P59, P60, P61, P62, P63, P64, P65, P66, P67, P69, P70, P71, P72, P73, P74, P75, P77, P78, P81, P82, P83.

The test system of a further assay is Spodoptera littoralis. The assay is described as follows: Example B6: activity against Spodoptera littoralis (Egyptian cotton leaf worm), cotton leaf discs. Particulars: foliar; for percent control (mortality, anti-feedant effect or growth inhibition) at 200 ppm: 72 h, L1 larvae, 3 days after infestation, read-out: control (at least one of mortality, anti-feedant effect, growth inhibition). The method, then: Cotton leaf discs were placed onto agar in 24-well microtiter plates and sprayed with aqueous test solutions prepared from 10′000 ppm DMSO stock solutions. After drying the leaf discs were infested with five L1 larvae. The samples were assessed for mortality, anti-feeding effect, and growth inhibition in comparison to untreated samples 3 days after infestation. Control of Spodoptera littoralis by a test sample is given when at least one of the categories mortality, anti-feedant effect, and growth inhibition is higher than the untreated sample.

Structures are written as SMILES.

For the compound `C[C@H](Nc1ncnc2c(Cl)cc(I)cc12)c1ncnn1-c1ncc(C(N)=O)s1` [Compound P37, 2-[5-[(1S)-1-[(8-chloro-6-iodo-quinazolin-4-yl)amino]ethyl]-1,2,4-triazol-1-yl]thiazole-5-carboxamide], the percent control (mortality, anti-feedant effect or growth inhibition) at 200 ppm in the assay on Chilo suppressalis and in the assay with Spodoptera littoralis was not below 80% throughout. The percent effect (mortality or growth inhibition) at 200 ppm with Diabrotica balteata and in the assay on Plutella xylostella was not below 80% in each case. The compound also came in with a mortality at 12 ppm in the assay on Myzus persicae not below 80%. The compound further showed a mortality at 50 ppm with Spodoptera littoralis (50 ppm) of 100%.

`C[C@H](Nc1ncnc2c(Cl)cc(C(F)(F)F)cc12)c1ncnn1-c1cnc(C(=O)NCC#N)cn1` [Compound P69, 5-[5-[(1S)-1-[[8-chloro-6-(trifluoromethyl)quinazolin-4-yl]amino]ethyl]-1,2,4-triazol-1-yl]-N-(cyanomethyl)pyrazine-2-carboxamide]: the percent control (mortality, anti-feedant effect or growth inhibition) at 200 ppm in the assay on Chilo suppressalis and with Spodoptera littoralis was not below 80% throughout. Besides, the percent effect (mortality or growth inhibition) at 200 ppm with Diabrotica balteata and in the assay on Plutella xylostella was not below 80% throughout. Moreover, the mortality at 12 ppm in the assay with Myzus persicae is not below 80%.

Take `C[C@H](Nc1ncnc2c(I)cc(Cl)cc12)c1ncnn1-c1cnc(C(=O)NCC#N)cn1` [Compound P73, 5-[5-[(1S)-1-[(6-chloro-8-iodo-quinazolin-4-yl)amino]ethyl]-1,2,4-triazol-1-yl]-N-(cyanomethyl)pyrazine-2-carboxamide]: the percent control (mortality, anti-feedant effect or growth inhibition) at 200 ppm with Chilo suppressalis and with Spodoptera littoralis was not below 80% each time. In the assay on Myzus persicae, the mortality at 12 ppm is not below 80%. For the same compound, the percent effect (mortality or growth inhibition) at 200 ppm in the assay with Plutella xylostella is not below 80%.

With `C[C@H](Nc1ncnc2c(Br)cc(Br)cc12)c1ncnn1-c1cnc(C(=O)NCC#N)cn1` [Compound P72, N-(cyanomethyl)-5-[5-[(1S)-1-[(6,8-dibromoquinazolin-4-yl)amino]ethyl]-1,2,4-triazol-1-yl]pyrazine-2-carboxamide], the percent control (mortality, anti-feedant effect or growth inhibition) at 200 ppm in the assay on Chilo suppressalis and in the assay with Spodoptera littoralis was not below 80% in each case. The mortality at 12 ppm in the assay with Myzus persicae was not below 80%. Besides, the percent effect (mortality or growth inhibition) at 200 ppm with Plutella xylostella is not below 80%.

Turning to `C[C@H](Nc1ncnc2c(C(F)(F)F)cc(Cl)cc12)c1ncnn1-c1ccc(C(N)=O)nn1` [Compound P20, 6-[5-[(1S)-1-[[6-chloro-8-(trifluoromethyl)quinazolin-4-yl]amino]ethyl]-1,2,4-triazol-1-yl]pyridazine-3-carboxamide], the percent control (mortality, anti-feedant effect or growth inhibition) at 200 ppm in the assay on Chilo suppressalis is not below 80%. For the same compound, the percent effect (mortality or growth inhibition) at 200 ppm with Diabrotica balteata and with Plutella xylostella was not below 80% each time.

In the case of `C[C@H](Nc1ncnc2c(C(F)(F)F)cc(Cl)cc12)c1ncnn1-c1cc(C(=O)NC(C)(C#N)C2CC2)ncn1` (stereo partly drawn) [Compound P42, 6-[5-[(1S)-1-[[6-chloro-8-(trifluoromethyl)quinazolin-4-yl]amino]ethyl]-1,2,4-triazol-1-yl]-N-(1-cyano-1-cyclopropyl-ethyl)pyrimidine-4-carboxamide], the percent control (mortality, anti-feedant effect or growth inhibition) at 200 ppm with Chilo suppressalis and in the assay with Spodoptera littoralis was not below 80% throughout. The percent effect (mortality or growth inhibition) at 200 ppm in the assay with Diabrotica balteata and in the assay on Plutella xylostella was not below 80% throughout.

Take `C[C@H](Nc1ncnc2c(C(F)(F)F)cc(Cl)cc12)c1ncnn1-c1cc(C(=O)NC2(C#N)CC2)ncn1` [Compound P22, 6-[5-[(1S)-1-[[6-chloro-8-(trifluoromethyl)quinazolin-4-yl]amino]ethyl]-1,2,4-triazol-1-yl]-N-(1-cyanocyclopropyl)pyrimidine-4-carboxamide]: the percent control (mortality, anti-feedant effect or growth inhibition) at 200 ppm in the assay on Chilo suppressalis and in the assay with Spodoptera littoralis was not below 80% in each case. The percent effect (mortality or growth inhibition) at 200 ppm in the assay on Diabrotica balteata and in the assay on Plutella xylostella was not below 80% each time.

As to `CON(C)C(=O)c1cc(-n2ncnc2[C@H](C)Nc2ncnc3c(C(F)(F)F)cc(Cl)cc23)ncn1` [Compound P27, 6-[5-[(1S)-1-[[6-chloro-8-(trifluoromethyl)quinazolin-4-yl]amino]ethyl]-1,2,4-triazol-1-yl]-N-methoxy-N-methyl-pyrimidine-4-carboxamide], the percent effect (mortality or growth inhibition) at 200 ppm with Diabrotica balteata and in the assay on Plutella xylostella was not below 80% in each case. Moreover, in the assay with Spodoptera littoralis, the percent control (mortality, anti-feedant effect or growth inhibition) at 200 ppm is not below 80%.

`CC(Nc1ncnc2c(C(F)(F)F)cc(Cl)cc12)c1nccnc1-c1cc(C(N)=O)ncn1` (centres unmarked) [Compound P57, 6-[3-[1-[[6-chloro-8-(trifluoromethyl)quinazolin-4-yl]amino]ethyl]pyrazin-2-yl]pyrimidine-4-carboxamide] came in with a mortality at 50 ppm with Chilo suppressalis (50 ppm) of 100%. Also, the percent control (mortality, anti-feedant effect or growth inhibition) at 200 ppm with Chilo suppressalis and with Spodoptera littoralis was not below 80% in each case. The percent effect (mortality or growth inhibition) at 200 ppm in the assay on Diabrotica balteata and in the assay on Plutella xylostella was not below 80% each time. This compound gave a mortality at 3.12 ppm in the assay on Spodoptera littoralis (3.12 ppm) of 80%.

For `CONC(=O)c1cc(-n2ncnc2[C@H](C)Nc2ncnc3c(C(F)(F)F)cc(Cl)cc23)ncn1` [Compound P28, 6-[5-[(1S)-1-[[6-chloro-8-(trifluoromethyl)quinazolin-4-yl]amino]ethyl]-1,2,4-triazol-1-yl]-N-methoxy-pyrimidine-4-carboxamide], the percent control (mortality, anti-feedant effect or growth inhibition) at 200 ppm in the assay with Chilo suppressalis and in the assay on Spodoptera littoralis was not below 80% in each case. Moreover, the percent effect (mortality or growth inhibition) at 200 ppm in the assay with Diabrotica balteata and in the assay on Plutella xylostella was not below 80% each time.

Take `C[C@H](Nc1ncnc2c(C(F)(F)F)cc(Cl)cc12)c1ncnn1-c1cc(C(=O)NC2(C)CSC2)ncn1` [Compound P45, 6-[5-[(1S)-1-[[6-chloro-8-(trifluoromethyl)quinazolin-4-yl]amino]ethyl]-1,2,4-triazol-1-yl]-N-(3-methylthietan-3-yl)pyrimidine-4-carboxamide]: the percent effect (mortality or growth inhibition) at 200 ppm in the assay on Diabrotica balteata and in the assay on Plutella xylostella was not below 80% each time. Further, the percent control (mortality, anti-feedant effect or growth inhibition) at 200 ppm in the assay on Spodoptera littoralis is not below 80%.

For the compound `CC(Nc1ncnc2c(I)cc(Cl)cc12)c1nccnc1-c1cc(C(N)=O)ncn1` (centres unmarked) [Compound P58, 6-[3-[1-[(6-chloro-8-iodo-quinazolin-4-yl)amino]ethyl]pyrazin-2-yl]pyrimidine-4-carboxamide], the percent control (mortality, anti-feedant effect or growth inhibition) at 200 ppm with Chilo suppressalis and with Spodoptera littoralis was not below 80% each time. Also, the percent effect (mortality or growth inhibition) at 200 ppm with Diabrotica balteata and with Plutella xylostella was not below 80% in each case.

The values are drawn from patent US20260132125A1, “PESTICIDALLY ACTIVE FUSED BICYCLIC HETEROAROMATIC COMPOUNDS” (priority 2022, published 2026).
